The text below walks through data of US20230233569A1 (Revolution Medicines, Inc., priority 2020, published 2023).

Usually IC50 stands for the concentration that inhibits the measured activity by half.

One assay has as its system Capan-1 (K-Ras G12V). The assay is described as follows: CellTiter-Glo cell viability assay, 5-day treatment. It counts as cell-based. The conditions noted are these: Homo sapiens, CAPAN-1, 120 h, 5-day treatment; read-out: Capan-1 Cell Viability assay data (K-Ras G12V, IC50). A digest of the protocol: (§1)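 Five-day compound treatment of plated cells; luminescent read after ~30 min at RT. Percent-of-DMSO data fit to a four-parameter logistic model.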
Background: ATP-based viability assays read luminescence as a measure of living cells.

Another assay deals with NCI-H358 (K-Ras G12C). Described as above. It counts as cell-based. The note with it: Homo sapiens, NCI-H358, 120 h, 5-day treatment; read-out: H358 Cell Viability assay data (K-Ras G12C, IC50). The method in brief: as §1
The target of another assay is KRAS G12C (Homo sapiens, UniProt P01116+P62937, G12C). The assay is described as follows: Disruption of BRAF RBD interaction with Ras (FRET / MOA assay, with Cyclophilin A). It counts as biochemical. The conditions noted are these: read-out: KRAS G12C FRET data, IC50. A digest of the protocol: (§2)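 Here, compound titrations (ten points, factor 3, from 30 μM final) act on nucleotide-bound K-Ras and Cyclophilin A, and ternary complex formation disrupts the RAF RBD interaction.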

Another assay addresses KRAS G12D (Homo sapiens, UniProt P01116+P62937, G12D). Described as above. It counts as biochemical. The note with it: read-out: KRAS G12D FRET data, IC50. A digest of the protocol:
as §2

Another assay concerns the target KRAS G12S (Homo sapiens, UniProt P01116+P62937, G12S). Described as above. It counts as biochemical. The note with it: read-out: KRAS G12S FRET data, IC50. A digest of the protocol: as §2
The next assay deals with KRAS G12V (Homo sapiens, UniProt P01116+P62937, G12V). The assay is described as above. It counts as biochemical. The conditions noted are these: KRAS G12V; read-out: KRAS G12V FRET data IC50. A digest of the protocol: as §2
In another assay the target is KRAS G13C (Homo sapiens, UniProt P01116+P62937, G13C). Described as above. The conditions noted are these: read-out: KRAS G13C FRET data, IC50. It counts as biochemical. The method in brief: as §2
The target of a further assay is KRAS G13D (Homo sapiens, UniProt P01116+P62937, G13D). The assay is described as above. It counts as biochemical. The note with it: KRAS G13D; read-out: KRAS G13D FRET data IC50. A digest of the protocol:
as §2

For a further assay, the target named is KRAS WT (Homo sapiens, UniProt P01116+P62937). The description is as above. It counts as biochemical. The conditions noted are these: KRAS WT; read-out: KRAS WT FRET data IC50. A digest of the protocol: as §2
The target of a further assay is NRAS G12C (Homo sapiens, UniProt P01111+P62937, G12C). The assay is described as above. The conditions noted are these: NRAS G12C; read-out: NRAS G12C FRET data IC50. It counts as biochemical.
Another assay addresses KRAS Q61H (Homo sapiens, UniProt P01116+P62937, Q61H). Described as above. The note with it: KRAS Q61H; read-out: KRAS Q61H FRET data IC50. It counts as biochemical. The method in brief:
(§3)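 IC50 reflects compound-driven Ras:Cyclophilin A ternary complex displacing BRAF RBD, read as lowered TR-FRET ratio relative to DMSO after Eu anti-His (10 nM) and APC anti-GST (50 nM) detection for 1.5 h. Prior incubation 3 h, 25° C, with 12.5 nM GMPPNP-loaded Ras, 50 nM BRAF RBD, 25 μM Cyclophilin A; top compound 30 μM.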

Another assay addresses NRAS Q61K (Homo sapiens, UniProt P01111+P62937, Q61K). The description is as above. It counts as biochemical. The conditions noted are these: NRAS Q61K; read-out: NRAS Q61K FRET data IC50. A digest of the protocol: as §3
For the next assay, the target named is NRAS Q61R (Homo sapiens, UniProt P01111+P62937, Q61R). Described as above. It counts as biochemical. The conditions noted are these: NRAS Q61R; read-out: NRAS Q61R FRET data IC50. The method in brief:
as §3

The target in the next assay is NRAS WT (Homo sapiens, UniProt P01111+P62937). The description is as above. It counts as biochemical. The note with it: NRAS WT; read-out: NRAS WT FRET data IC50. A digest of the protocol:
as §3

Chain of KRAS Q61H (P01116 1-169 isoform P01116-2 Q61H limits assumed): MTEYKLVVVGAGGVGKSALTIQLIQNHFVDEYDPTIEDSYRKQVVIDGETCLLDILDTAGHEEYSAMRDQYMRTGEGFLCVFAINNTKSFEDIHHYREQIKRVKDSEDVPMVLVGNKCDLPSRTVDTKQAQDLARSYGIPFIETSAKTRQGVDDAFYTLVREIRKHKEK
Chain of KRAS Q61H (P62937 whole entry): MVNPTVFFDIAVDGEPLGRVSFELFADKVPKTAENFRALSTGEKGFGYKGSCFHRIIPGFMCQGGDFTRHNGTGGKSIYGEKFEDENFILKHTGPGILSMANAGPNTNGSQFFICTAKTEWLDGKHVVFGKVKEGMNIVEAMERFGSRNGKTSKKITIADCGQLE
Chain of NRAS WT (P01111 whole entry): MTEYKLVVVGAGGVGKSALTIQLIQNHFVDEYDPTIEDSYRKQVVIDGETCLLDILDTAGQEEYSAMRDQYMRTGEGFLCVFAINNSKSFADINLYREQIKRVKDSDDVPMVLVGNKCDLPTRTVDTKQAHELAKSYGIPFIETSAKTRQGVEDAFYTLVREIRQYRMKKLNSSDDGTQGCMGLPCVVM
Chain of NRAS WT (P62937 whole entry): as the sequence (P62937 whole entry) above
Chain of NRAS Q61K (P01111 whole entry Q61K): as the sequence (P01111 whole entry) above, with Q61K counted along it
Chain of NRAS Q61K (P62937 whole entry): as the sequence (P62937 whole entry) above
Chain of KRAS G12V (P01116 1-169 isoform P01116-2 G12V limits assumed): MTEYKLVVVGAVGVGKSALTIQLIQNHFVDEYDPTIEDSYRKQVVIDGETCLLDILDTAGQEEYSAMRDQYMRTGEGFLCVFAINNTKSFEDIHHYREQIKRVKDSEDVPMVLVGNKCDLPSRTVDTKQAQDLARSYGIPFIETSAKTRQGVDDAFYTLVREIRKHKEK
Chain of KRAS G12V (P62937 whole entry): as the sequence (P62937 whole entry) above
Chain of KRAS G13D (P01116 1-169 isoform P01116-2 G13D limits assumed): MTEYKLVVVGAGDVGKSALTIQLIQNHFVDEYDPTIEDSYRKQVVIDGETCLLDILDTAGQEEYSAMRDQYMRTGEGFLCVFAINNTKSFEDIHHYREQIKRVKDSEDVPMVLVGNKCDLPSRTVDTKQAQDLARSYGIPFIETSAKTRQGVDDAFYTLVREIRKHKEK
Chain of KRAS G13D (P62937 whole entry): as the sequence (P62937 whole entry) above
Chain of NRAS Q61R (P01111 whole entry Q61R): as the sequence (P01111 whole entry) above, with Q61R counted along it
Chain of NRAS Q61R (P62937 whole entry): as the sequence (P62937 whole entry) above
Chain of KRAS WT (P01116 1-169 isoform P01116-2 limits assumed): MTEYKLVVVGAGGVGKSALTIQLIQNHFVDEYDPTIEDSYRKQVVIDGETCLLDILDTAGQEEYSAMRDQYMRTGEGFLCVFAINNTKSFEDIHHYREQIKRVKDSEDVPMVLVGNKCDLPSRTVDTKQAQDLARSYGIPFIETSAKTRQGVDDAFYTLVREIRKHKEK
Chain of KRAS WT (P62937 whole entry): as the sequence (P62937 whole entry) above
Chain of KRAS G12S (P01116 1-169 isoform P01116-2 G12S limits assumed): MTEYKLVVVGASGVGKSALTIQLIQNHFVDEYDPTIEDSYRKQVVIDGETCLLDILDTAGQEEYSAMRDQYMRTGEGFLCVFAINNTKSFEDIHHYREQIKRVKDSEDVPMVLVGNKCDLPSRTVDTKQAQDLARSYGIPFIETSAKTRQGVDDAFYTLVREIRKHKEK
Chain of KRAS G12S (P62937 whole entry): as the sequence (P62937 whole entry) above
Chain of KRAS G13C (P01116 1-169 isoform P01116-2 G13C): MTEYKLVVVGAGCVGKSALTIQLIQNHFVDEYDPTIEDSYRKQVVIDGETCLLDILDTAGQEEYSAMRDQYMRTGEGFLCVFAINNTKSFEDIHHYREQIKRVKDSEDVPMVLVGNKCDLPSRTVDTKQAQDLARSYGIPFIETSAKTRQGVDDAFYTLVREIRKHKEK
Chain of KRAS G13C (P62937 whole entry): as the sequence (P62937 whole entry) above
Chain of KRAS G12C (P01116 1-169 isoform P01116-2 G12C): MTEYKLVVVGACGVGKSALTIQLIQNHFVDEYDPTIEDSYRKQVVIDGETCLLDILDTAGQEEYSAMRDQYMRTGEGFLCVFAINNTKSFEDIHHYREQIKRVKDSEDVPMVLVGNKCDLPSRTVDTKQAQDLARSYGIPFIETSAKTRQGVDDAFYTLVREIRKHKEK
Chain of KRAS G12C (P62937 whole entry): as the sequence (P62937 whole entry) above
Chain of NRAS G12C (P01111 whole entry G12C): as the sequence (P01111 whole entry) above, with G12C counted along it
Chain of NRAS G12C (P62937 whole entry): as the sequence (P62937 whole entry) above
Chain of KRAS G12D (P01116 1-169 isoform P01116-2 G12D limits assumed): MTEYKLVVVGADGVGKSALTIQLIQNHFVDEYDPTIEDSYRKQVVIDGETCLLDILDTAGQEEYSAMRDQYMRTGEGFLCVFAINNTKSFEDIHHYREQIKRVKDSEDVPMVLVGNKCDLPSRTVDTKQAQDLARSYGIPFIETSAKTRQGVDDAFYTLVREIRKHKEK
Chain of KRAS G12D (P62937 whole entry): as the sequence (P62937 whole entry) above

In the case of `CCn1c(-c2cccnc2[C@H](C)OC)c2c3cc(ccc31)-c1csc(n1)C[C@H](NC(=O)[C@H](C(C)C)N(C)C(=O)N1[C@@H](C)CN(C)C[C@@H]1C)C(=O)N1CCC[C@H](N1)C(=O)OCC(C)(C)C2` [Example A609], the half-inhibitory concentration (IC50) with Capan-1 (K-Ras G12V) was 0.1 to 1 µM; with NCI-H358 (K-Ras G12C) it was 1 to 10 µM; at KRAS G12C it was 1 to 10 µM; on KRAS G12D, 1 to 10 µM; on KRAS G12S, 1 to 10 µM; on KRAS G12V, 1 to 10 µM. The IC50 on KRAS G13C fell in the range of 1 to 10 µM; at KRAS G13D, 1 to 10 µM; on KRAS WT, 1 to 10 µM; at NRAS G12C, 0.1 to 1 µM; on KRAS Q61H it was 0.1 to 1 µM; at NRAS Q61K it was 0.1 to 1 µM. In addition, the IC50 on NRAS Q61R lay in the range of 0.1 to 1 µM; at NRAS WT, 1 to 10 µM.
In the case of `CCn1c(-c2cccnc2[C@H](C)OC)c2c3cc(ccc31)-c1csc(n1)C[C@H](NC(=O)[C@H](C(C)C)N(C)C(=O)N1[C@H](C)CN(C)C[C@H]1C)C(=O)N1CCC[C@H](N1)C(=O)OCC(C)(C)C2` [Example A610], the IC50 in the assay on Capan-1 (K-Ras G12V), in the assay with NCI-H358 (K-Ras G12C), on KRAS G12C, at KRAS G12D, at KRAS G12S and at KRAS G12V was 0.1 to 1 µM each time. Besides, the IC50 at KRAS G13C lay within 0.1 to 1 µM; at KRAS G13D, 0.1 to 1 µM; on KRAS WT, 0.1 to 1 µM; at NRAS G12C, 0.1 to 1 µM; on KRAS Q61H, 0.01 to 0.1 µM; on NRAS Q61K, 0.1 to 1 µM. For the same compound, the IC50 at NRAS Q61R and on NRAS WT was 0.1 to 1 µM each time.
In the case of `CCn1c(-c2cccnc2[C@H](C)OC)c2c3cc(cnc31)-c1csc(n1)C[C@H](NC(=O)[C@H](C(C)C)N(C)C(=O)N1CC(OC)C1)C(=O)N1CCC[C@H](N1)C(=O)OCC(C)(C)C2` [Example A612], the half-maximal inhibitory concentration (IC50) lay in the range of 0.1 to 1 µM with Capan-1 (K-Ras G12V); 0.1 to 1 µM in the assay on NCI-H358 (K-Ras G12C); 0.1 to 1 µM on KRAS G12C; 1 to 10 µM at KRAS G12D; 1 to 10 µM at KRAS G12S; 1 to 10 µM on KRAS G12V. Further, the IC50 on KRAS G13C lay in the range of 1 to 10 µM; at KRAS G13D, 1 to 10 µM; on KRAS WT, 1 to 10 µM; on NRAS G12C, 0.1 to 1 µM; on KRAS Q61H, 0.1 to 1 µM; at NRAS Q61K, 0.1 to 1 µM. The IC50 at NRAS Q61R was 1 to 10 µM; on NRAS WT it was 0.1 to 1 µM.
